Results from patent EP0728012B1, “NOVEL GnRH ANALOGUES WITH ANTITUMOUR EFFECTS AND PHARMACEUTICAL COMPOSITIONS THEREOF” (Lovas, Sandor, priority 1994, dated 1996).

Tests used:
human tumour cell lines = assay: Inhibition of colony formation (Example 18), cell line not given; type: cell-based; conditions: 50 µM of the active substance; cell line not stated
Description: The investigation gives a precise information about the cell-damaging effect of the tested substance. In the case of cytostatics the cell-damaging effect is not cell-specific. […] One part of the arrested cells again go into the cycle, the other part may perish (apoptosis). […] The investigations were carried out on MCF-7 and MDA-MB-231 human mammary carcinoma cell lines, PC3 human prostate 15 carcinoma cell line and Ishikawa human endometrium carcinoma cell line. Three hundred cells were set into Petri dishes of 3.5 cm in diameter each. The treatment was carried out once, 24 hours following the explantation, then the colonies formed were counted after 9 to 12 days.

MCF-7 = conditions: MCF-7; 30 µM active substance; conjugate, treated once; cell count on 7th day
Description: (§1) The procedure of treatment was as follows. After trypsinization the cells, 400,000 cells of MCF-7, MDA-MB-231 human mammary carcinoma, PC3 human prostate carcinoma or Ishikawa human endometrium tumour each were passed into Petri dishes of 10 cm in diameter. Starting from the day following transfer, the cells were treated with the substances to be tested in solution prepared with the nutrient medium during the exponential growth phase. […]

MDA-MB-231 = conditions: MDA-MB-231; 30 µM active substance; conjugate, treated once
Description: as §1

PC3 = assay: In vitro inhibition of cell proliferation (Example 19); type: cell-based, human; conditions: 30 µM active substance, conjugate, treated once
Procedure, shortened: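 Starting from 400,000 cells per dish during exponential growth, cultures received GnRH antagonist analogues or lamprey GnRH-III at 1 to 50 µM every two days. Cell count determined on day 7.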

[1] = Castration effect: uterus weight of xenograft-bearing animals; type: in vivo, mice; conditions: animals bearing MCF-7 xenografts; treatment for four weeks
Excerpt: The castration effect is illustrated by the following data.

cellular immune response = assay: Cellular immune response (rosette formation against BRBC antigen); type: in vivo; conditions: mice; dose not stated
Excerpt: (§2) The immunosuppressive side effect of cytostatics used in tumour therapy is commonly known. This effect can be compensated to a certain grade by various immunostimulants (endotoxin, levamisole). Polypeptides with much […] molecular weights (about 40,000 to 80,000) are also capable of protecting against immunosuppressive effect [Gaál et al: J. Biol. Resp. Modif., 5, 148-159 (1986)]. The molecular weight of the novel polyanionic P-GFLG-OH macromolecule tested by us is about 10,000, that of MI-1892 is about 2000, i.e. relatively low; therefore, their immunostimulatory activity was unexpected.

humoral immune response = assay: Humoral immune response (antibody production of B-lymphocytes); type: in vivo; conditions: mice; dose not stated
Excerpt: as §2

Substance: Ac-D-Trp^1,3,D-Cpa^2,{Lys(n-poly-(N-vinylpyrrolidone-co-maleic acid)-Gly-Phe-Leu-Gly]}^6,D-Ala^10-GnRH [P-GFLG-1544]
- inhibition on the colony formation / survival of the cells (human tumour cell lines): 100%
- % Inhibition of cell division (proliferation) (MCF-7): 58%
- % Inhibition of cell division (proliferation) (MDA-MB-231): 45%
- % Inhibition of cell division (proliferation) (PC3): 68.5%
- uterus weight [1]: 0.1149 ± 0.0110 g

Substance: Ac-D-Trp^1,3,D-Cpa^2, {Lys[n-poly(N-vinyl pyrrolidone-co-maleic acid)-Gly-Phe-Leu-Gly-]}^5, [a-Asp(DEA)]^6, D-Ala^10-GnRH [P-GFLG-1892]
- inhibition on the colony formation / survival of the cells (human tumour cell lines): 100%
- % Inhibition of cell division (proliferation) (MCF-7): 45%
- % Inhibition of cell division (proliferation) (MDA-MB-231): 42%
- increase of the cellular immune response (cellular immune response): two-fold
- increase of the humoral immune response (humoral immune response): possesses an immunostimulatory effect
- % Inhibition of cell division (proliferation) (PC3): 51%
